Values joined by “and” are separate entries in the source; they are usually repeats but may differ in a detail not shown here. Equal values may be shown once. Inconclusive results and toxic doses are left out. Rule as the data show it: active = T/C of 150% or more; inactive = T/C below 125%. Peptide text beside a SMILES is read from it. * marks the point of attachment. Cbz = O=C(OCc1ccccc1)*; OtBu = CC(C)(C)O*
Tested on: L1210 leukemia ip in BDF1 mice, survival T/C
Experiment: NCI In Vivo Anticancer Drug Screen. Data for tumor model L1210 Leukemia (intraperitoneal) in B6D2F1 (BDF1) mice
Conditions: endpoint: mean survival time, higher = longer survival
Method in brief: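 Read-out is survival time, reported as the treated-group measurement over the vehicle-control measurement.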

[1] = dose: 100.0 mg/kg/injection, schedule: Q01DX001 (ip), vehicle: carboxymethylcellulose (CMC)
[2] = dose: 100.0 mg/kg/injection, schedule: Q01DX009 (ip), vehicle: saline with Tween-80
[3] = dose: 200.0 mg/kg/injection, schedule: Q01DX009 (ip), vehicle: saline with Tween-80
[4] = dose: 400.0 mg/kg/injection, schedule: Q01DX009 (ip), vehicle: saline with Tween-80
[5] = dose: 100.0 mg/kg/injection, schedule: Q04DX003 (ip), vehicle: saline with Tween-80
[6] = dose: 200.0 mg/kg/injection, schedule: Q04DX003 (ip), vehicle: saline with Tween-80
[7] = dose: 400.0 mg/kg/injection, schedule: Q04DX003 (ip), vehicle: saline with Tween-80
[8] = dose: 100.0 mg/kg/injection, schedule: Q01DX001 (ip), vehicle: saline with Tween-80
[9] = dose: 100.0 mg/kg/injection, schedule: Q01DX009 (ip), vehicle: Klucel (hydroxypropylcellulose) (HPC)
[10] = dose: 200.0 mg/kg/injection, schedule: Q01DX009 (ip), vehicle: Klucel (hydroxypropylcellulose) (HPC)
[11] = dose: 400.0 mg/kg/injection, schedule: Q01DX009 (ip), vehicle: Klucel (hydroxypropylcellulose) (HPC)

Measured: T/C

ClCCN(CCCl)CCN1c2ccccc2Sc2ccccc21
inactive: dose: 9.37 mg/kg/injection, schedule: Q01DX009 (ip), vehicle: Klucel (hydroxypropylcellulose) (HPC) 114 % of control | dose: 12.5 mg/kg/injection, schedule: Q01DX001 (ip), vehicle: Klucel (hydroxypropylcellulose) (HPC) 114 % of control | dose: 12.5 mg/kg/injection, schedule: Q04DX003 (ip), vehicle: saline with Tween-80 103 % of control | dose: 16.5 mg/kg/injection, schedule: Q01DX001 (ip), vehicle: Klucel (hydroxypropylcellulose) (HPC) 100 % of control and 111 % of control | dose: 18.75 mg/kg/injection, schedule: Q01DX009 (ip), vehicle: Klucel (hydroxypropylcellulose) (HPC) 106 % of control | dose: 25.0 mg/kg/injection, schedule: Q01DX001 (ip), vehicle: Klucel (hydroxypropylcellulose) (HPC) 95 % of control and 112 % of control | dose: 25.0 mg/kg/injection, schedule: Q04DX003 (ip), vehicle: saline with Tween-80 108 % of control | dose: 29.0 mg/kg/injection, schedule: Q01DX015 (ip), vehicle: carboxymethylcellulose (CMC) 102 % of control | dose: 37.5 mg/kg/injection, schedule: Q01DX001 (ip), vehicle: Klucel (hydroxypropylcellulose) (HPC) 101 % of control and 122 % of control | dose: 37.5 mg/kg/injection, schedule: Q01DX009 (ip), vehicle: Klucel (hydroxypropylcellulose) (HPC) 89 % of control | dose: 50.0 mg/kg/injection, schedule: Q04DX003 (ip), vehicle: saline with Tween-80 92 % of control | dose: 85.0 mg/kg/injection, schedule: Q04DX003 (ip), vehicle: Klucel (hydroxypropylcellulose) (HPC) 115 % of control | dose: 88.8 mg/kg/injection, schedule: Q01DX001 (ip), vehicle: carboxymethylcellulose (CMC) 115 % of control | dose: 100.0 mg/kg/injection, schedule: Q01DX001 (ip), vehicle: Klucel (hydroxypropylcellulose) (HPC) 119 % of control | [1] 104 % of control | dose: 133.0 mg/kg/injection, schedule: Q01DX001 (ip), vehicle: carboxymethylcellulose (CMC) 113 % of control and 115 % of control

Cc1c2c(cc3c4ccccc4n(CC4CO4)c13)C(c1ccc(Cl)cc1)=NCC2 (stereo unspecified)
inactive: dose: 37.5 mg/kg/injection, schedule: Q04DX003 (ip), vehicle: water 104 % of control | dose: 75.0 mg/kg/injection, schedule: Q04DX003 (ip), vehicle: water 100 % of control | dose: 150.0 mg/kg/injection, schedule: Q04DX003 (ip), vehicle: water 92 % of control | dose: 300.0 mg/kg/injection, schedule: Q04DX003 (ip), vehicle: water 96 % of control

O=C(CC(NC(=O)OCc1ccccc1)C(=O)O)OCc1ccccc1 (stereo unspecified)
inactive: dose: 100.0 mg/kg/injection, schedule: Q01DX009 (ip), vehicle: saline sonified 95 % of control | [2] 103 % of control | dose: 100.0 mg/kg/injection, schedule: Q04DX003 (ip), vehicle: saline sonified 97 % of control | dose: 200.0 mg/kg/injection, schedule: Q01DX009 (ip), vehicle: saline sonified 94 % of control | [3] 94 % of control | dose: 200.0 mg/kg/injection, schedule: Q04DX003 (ip), vehicle: saline sonified 89 % of control | dose: 400.0 mg/kg/injection, schedule: Q01DX009 (ip), vehicle: saline sonified 90 % of control | [4] 94 % of control | dose: 400.0 mg/kg/injection, schedule: Q04DX003 (ip), vehicle: saline sonified 103 % of control

COC(=O)C(CCC(=O)OC(C)(C)C)NC(=O)C(NC(=O)OCc1ccccc1)C(C)C (stereo not drawn) (Cbz-Val-Glu(OtBu)-OMe; configuration not given here)
inactive: [2] 98 % of control | [5] 92 % of control | [3] 89 % of control | [6] 95 % of control | [4] 98 % of control | [7] 95 % of control

CC(=O)OC1(c2ccccc2)OC(=O)C(C)(C)c2ccccc21 (stereo unspecified)
inactive: [8] 94 % of control | dose: 200.0 mg/kg/injection, schedule: Q01DX001 (ip), vehicle: saline with Tween-80 91 % of control

C[C@]12CC[C@H]3[C@@H](CCC4=CC(=O)CC[C@@]43C(=O)F)[C@@H]1CC[C@@H]2O
inactive: dose: 100.0 mg/kg/injection, schedule: Q01DX001 (sc), vehicle: steriod suspending solution 97 % of control | dose: 200.0 mg/kg/injection, schedule: Q01DX001 (sc), vehicle: steriod suspending solution 100 % of control | dose: 400.0 mg/kg/injection, schedule: Q01DX001 (sc), vehicle: steriod suspending solution 97 % of control

O=C1c2ccccc2-c2ccccc21
inactive: [2] 88 % of control | [5] 102 % of control | [3] 93 % of control | [6] 102 % of control | [4] 88 % of control | [7] 105 % of control

COc1ccccc1NC(=O)Nc1ccccc1
inactive: [9] 94 % of control and 102 % of control | dose: 100.0 mg/kg/injection, schedule: Q04DX003 (ip), vehicle: Klucel (hydroxypropylcellulose) (HPC) 95 % of control | [10] 96 % of control and 97 % of control | dose: 200.0 mg/kg/injection, schedule: Q04DX003 (ip), vehicle: Klucel (hydroxypropylcellulose) (HPC) 93 % of control | [11] 96 % of control and 100 % of control | dose: 400.0 mg/kg/injection, schedule: Q04DX003 (ip), vehicle: Klucel (hydroxypropylcellulose) (HPC) 86 % of control

O=C(Nc1ccc2ccccc2c1)c1ccccc1Cl
inactive: [9] 93 % of control | [10] 101 % of control | [11] 101 % of control

CC(C)NC(N)=O
inactive: dose: 87.5 mg/kg/injection, schedule: Q01DX009 (ip), vehicle: saline 101 % of control | dose: 175.0 mg/kg/injection, schedule: Q01DX009 (ip), vehicle: saline 101 % of control | dose: 350.0 mg/kg/injection, schedule: Q01DX009 (ip), vehicle: saline 101 % of control

C/C=C\CCCCCCC
inactive: dose: 50.0 mg/kg/injection, schedule: Q01DX001 (ip), vehicle: carboxymethylcellulose (CMC) 90 % of control | [1] 90 % of control | dose: 200.0 mg/kg/injection, schedule: Q01DX001 (ip), vehicle: carboxymethylcellulose (CMC) 95 % of control | dose: 400.0 mg/kg/injection, schedule: Q01DX001 (ip), vehicle: carboxymethylcellulose (CMC) 90 % of control

Cc1ccc([I+]c2ccc(C)c(C)c2)cc1C
inactive: dose: 1.0 mg/kg/injection, schedule: Q01DX001 (ip), vehicle: acetone 102 % of control | dose: 2.0 mg/kg/injection, schedule: Q01DX001 (ip), vehicle: acetone 98 % of control | dose: 4.0 mg/kg/injection, schedule: Q01DX001 (ip), vehicle: acetone 105 % of control | dose: 5.9 mg/kg/injection, schedule: Q01DX001 (ip), vehicle: saline 103 % of control | dose: 9.0 mg/kg/injection, schedule: Q01DX001 (ip), vehicle: saline 97 % of control | dose: 13.0 mg/kg/injection, schedule: Q01DX001 (ip), vehicle: saline 100 % of control | dose: 19.0 mg/kg/injection, schedule: Q01DX001 (ip), vehicle: saline 102 % of control | dose: 29.0 mg/kg/injection, schedule: Q01DX001 (ip), vehicle: saline 101 % of control | dose: 45.0 mg/kg/injection, schedule: Q01DX001 (ip), vehicle: saline 98 % of control | dose: 65.0 mg/kg/injection, schedule: Q01DX001 (ip), vehicle: saline with Tween-80 96 % of control | [8] 97 % of control | dose: 150.0 mg/kg/injection, schedule: Q01DX001 (ip), vehicle: saline with Tween-80 94 % of control | dose: 225.0 mg/kg/injection, schedule: Q01DX001 (ip), vehicle: saline with Tween-80 102 % of control | dose: 340.0 mg/kg/injection, schedule: Q01DX001 (ip), vehicle: saline with Tween-80 96 % of control

— PubChem BioAssay AID248 (DTP/NCI, 2004)
